Patent US20100173943A1, “INSECTICIDAL COMPOSITIONS WITH IMPROVED ACTION” (BAYER CROPSCIENCE AG, priority 2007, published 2010)
Like-named read-outs stand apart in the source and are kept apart here.

How the values were obtained:
[1] = test system: cotton aphid (Aphis gossypii); assay: Aphis gossypii test (APHIGO spray treatment); assay type: in vivo; settings: for pest or weed control at 100 ppm: 100 ppm a.i. alone; for pest or weed control at 20 ppm: 20 ppm a.i. alone; for pest or weed control at 4 ppm: 4 ppm a.i. alone
Procedure: Aphis gossypii Test (APHIGO Spray Treatment)
(§1) Solvent: 7 parts by weight of dimethylformamide
(§2) Emulsifier: 2 parts by weight of alkylaryl polyglycol ether
(§3) To prepare a ready-to-use active ingredient formulation, 1 part by weight of active ingredient is mixed with the specified amounts of solvent and emulsifier and the concentrate is diluted with emulsifier-containing water to the desired concentration. In the case that addition of ammonium salts, penetrants, or ammonium salts and penetrants is required, they are pipetted in each case into the finished preparation solution after dilution in a concentration of 1000 ppm each.
Cotton leaves (Gossypium hirsutum) highly infested by the cotton aphid (Aphis gossypii) are sprayed with an active ingredient formulation with the desired concentration.
After the desired period, the kill rate in % is determined. 100% means that all aphids have been killed; 0% means that no aphids have been killed.

[2] = test system: green peach aphid (Myzus persicae); assay: Myzus persicae test (MYZUPE); assay type: in vivo; settings: for pest or weed control at 0.8 ppm / pest or weed control at 4 ppm / pest or weed control at 20 ppm / pest or weed control at 100 ppm: Myzus persicae, 144 h, read-out: Kill in % after 6 days a.i.; for pest or weed control at 4 ppm: 4 ppm a.i. alone; for pest or weed control at 20 ppm: 20 ppm a.i. alone; for pest or weed control at 100 ppm: 100 ppm a.i. alone
Procedure: Myzus persicae Test (MYZUPE)
as §1, §2
as §3, with “prepare an appropriate” for “prepare a ready-to-use”, “the given” for “the specified”, “and emulsifier,” for “and emulsifier”, “are pippetted” for “are pipetted”
Pepper plants (Capsicum annuum) highly infested by the green peach aphid (Myzus persicaei) are treated by spraying with the active ingredient formulation in the desired concentration.
After the desired time, the kill rate in % is determined. 100% means that all animals have been killed; 0% means that no animals have been killed.

[3] = 0.8 ppm a.i. + AMS and RME 1000 ppm each, cotton leaves sprayed, 6 days
[4] = 0.8 ppm a.i. + ammonium sulphate 1000 ppm, cotton leaves sprayed, 6 days
[5] = 0.8 ppm a.i. + rapeseed oil methyl ester 1000 ppm, cotton leaves sprayed, 6 days
[6] = Aphis gossypii, 144 h, 0.8 ppm a.i. alone, cotton leaves sprayed, 6 days, read-out: Kill in % after 6 days a.i.
[7] = 0.8 ppm a.i. + AMS and RME 1000 ppm each, pepper plants sprayed, 6 days
[8] = 0.8 ppm a.i. + ammonium sulphate 1000 ppm, pepper plants sprayed, 6 days
[9] = 0.8 ppm a.i. + rapeseed oil methyl ester 1000 ppm, pepper plants sprayed, 6 days
[10] = 4 ppm a.i. + AMS and RME 1000 ppm each, pepper plants sprayed, 6 days
[11] = 4 ppm a.i. + ammonium sulphate 1000 ppm, pepper plants sprayed, 6 days
[12] = 4 ppm a.i. + rapeseed oil methyl ester 1000 ppm, pepper plants sprayed, 6 days
[13] = 0.8 ppm a.i. alone, pepper plants sprayed, 6 days
[14] = 100 ppm a.i. + AMS and RME 1000 ppm each, cotton leaves sprayed, 6 days
[15] = 100 ppm a.i. + ammonium sulphate 1000 ppm, cotton leaves sprayed, 6 days
[16] = 100 ppm a.i. + rapeseed oil methyl ester 1000 ppm, cotton leaves sprayed, 6 days
[17] = Aphis gossypii, 144 h, cotton leaves sprayed, 6 days, read-out: Kill in % after 6 days a.i.
[18] = 20 ppm a.i. + AMS and RME 1000 ppm each, pepper plants sprayed, 6 days
[19] = 20 ppm a.i. + ammonium sulphate 1000 ppm, pepper plants sprayed, 6 days
[20] = 20 ppm a.i. + rapeseed oil methyl ester 1000 ppm, pepper plants sprayed, 6 days
[21] = 100 ppm a.i. + AMS and RME 1000 ppm each, pepper plants sprayed, 6 days
[22] = 100 ppm a.i. + ammonium sulphate 1000 ppm, pepper plants sprayed, 6 days
[23] = 100 ppm a.i. + rapeseed oil methyl ester 1000 ppm, pepper plants sprayed, 6 days
[24] = 20 ppm a.i. + AMS and RME 1000 ppm each, cotton leaves sprayed, 6 days
[25] = 20 ppm a.i. + ammonium sulphate 1000 ppm, cotton leaves sprayed, 6 days
[26] = 20 ppm a.i. + rapeseed oil methyl ester 1000 ppm, cotton leaves sprayed, 6 days
[27] = 4 ppm a.i. + AMS and RME 1000 ppm each, cotton leaves sprayed, 6 days
[28] = 4 ppm a.i. + ammonium sulphate 1000 ppm, cotton leaves sprayed, 6 days
[29] = 4 ppm a.i. + rapeseed oil methyl ester 1000 ppm, cotton leaves sprayed, 6 days

Structure (SMILES) | Kill in % after 6 days +AMS + RME [1, 3] [%] | Kill in % after 6 days +AMS [1, 4] [%] | Kill in % after 6 days +RME [1, 5] [%] | pest or weed control at 0.8 ppm [1, 6] [%] | Kill in % after 6 days +AMS + RME [2, 7] [%] | Kill in % after 6 days +AMS [2, 8] [%] | Kill in % after 6 days +RME [2, 9] [%] | Kill in % after 6 days +AMS + RME [2, 10] [%] | Kill in % after 6 days +AMS [2, 11] [%] | Kill in % after 6 days +RME [2, 12] [%] | pest or weed control at 0.8 ppm [2, 13] [%] | pest or weed control at 4 ppm ([2]; pepper plants sprayed, 6 days) [%] | Kill in % after 6 days +AMS + RME [2, 18] [%] | Kill in % after 6 days +AMS [2, 19] [%] | Kill in % after 6 days +RME [2, 20] [%] | pest or weed control at 20 ppm ([2]; pepper plants sprayed, 6 days) [%] | Kill in % after 6 days +AMS + RME [1, 24] [%] | Kill in % after 6 days +AMS [1, 25] [%] | Kill in % after 6 days +RME [1, 26] [%] | pest or weed control at 20 ppm [1, 17] [%] | further results
CN(Cc1ccc(Cl)nc1)C1=CC(=O)CC1 [Compound I-18, 3-{[(6-chloropyrid-3-yl)methyl](methyl)amino}cyclopent-2-en-1-one] | 90 | 50 | 75 | 65 | 70 | 0 | 98 | 100 | 95 | 100 | 25 | 80 | – | – | – | – | – | – | – | – | –
CCN(Cc1ccc(Cl)nc1)C1=CC(=O)CCC1 [Compound I-39, 3-{[(6-chloropyrid-3-yl)methyl](ethyl)amino}cyclohex-2-en-1-one] | – | – | – | – | – | – | – | – | – | – | – | – | 30 | 25 | 80 | 20 | – | – | – | – | Kill in % after 6 days +AMS + RME [1, 14]: 60%; Kill in % after 6 days +AMS [1, 15]: 45%; Kill in % after 6 days +RME [1, 16]: 60%; pest or weed control at 100 ppm [1, 17]: 45%; Kill in % after 6 days +AMS + RME [2, 21]: 95%; Kill in % after 6 days +AMS [2, 22]: 90%; Kill in % after 6 days +RME [2, 23]: 95%; pest or weed control at 100 ppm ([2]; pepper plants sprayed, 6 days): 85%
C=CCN(Cc1ccc(Cl)nc1)C1=CC(=O)OC1 [Compound I-32, 4-{allyl[(6-chloropyrid-3-yl)methyl]amino}furan-2(5H)-one] | – | – | – | – | – | – | – | 80 | 60 | 70 | – | 0 | 100 | 100 | 98 | 15 | 100 | 100 | 100 | 0 | –
O=C1C=C(N(CCF)Cc2ccc(Cl)nc2)CO1 [Compound I-6, 4-{[(6-chloropyrid-3-yl)methyl](2-fluoroethyl)amino}furan-2(5H)-one] | 70 | 55 | 80 | 45 | – | – | – | 100 | 85 | 100 | – | 60 | – | – | – | – | – | – | – | – | Kill in % after 6 days +AMS + RME ([1]; 0.16 ppm a.i. + AMS and RME 1000 ppm each, cotton leaves sprayed, 6 days): 40%; Kill in % after 6 days +AMS ([1]; 0.16 ppm a.i. + ammonium sulphate 1000 ppm, cotton leaves sprayed, 6 days): 0%; Kill in % after 6 days +RME ([1]; 0.16 ppm a.i. + rapeseed oil methyl ester 1000 ppm, cotton leaves sprayed, 6 days): 25%; pest or weed control at 0.16 ppm ([1]; Aphis gossypii, 144 h, 0.16 ppm a.i. alone, cotton leaves sprayed, 6 days, read-out: Kill in % after 6 days a.i.): 0%
CC1OC(=O)C=C1N(C)Cc1ccc(Cl)nc1 (stereo not drawn) [Compound I-25, 4-{[(6-chloropyrid-3-yl)methyl](methyl)amino}-5-methylfuran-2(5H)-one] | – | – | – | – | – | – | – | 55 | 50 | 80 | – | 0 | – | – | – | – | – | – | – | – | Kill in % after 6 days +AMS + RME [1, 27]: 100%; Kill in % after 6 days +AMS [1, 28]: 60%; Kill in % after 6 days +RME [1, 29]: 75%; pest or weed control at 4 ppm [1, 17]: 65%
CN(Cc1cnc(Cl)c(F)c1)C1=CC(=O)OC1 [Compound I-8, 4-{[(6-chloro-5-fluoropyrid-3-yl)methyl](methyl)amino}furan-2(5H)-one] | 75 | 30 | 60 | 20 | 95 | 50 | 95 | – | – | – | 40 | – | – | – | – | – | – | – | – | – | –
O=C1C=C(NCc2ccc(Cl)nc2)CCC1 [Compound I-37, 3-{[(6-chloropyrid-3-yl)methyl]amino}cyclohex-2-en-1-one] | – | – | – | – | – | – | – | – | – | – | – | – | 95 | 35 | 90 | 20 | 65 | 45 | 40 | 55 | –
C#CCN(Cc1ccc(Cl)nc1)C1=CC(=O)CCC1 [Compound I-36, 3-{[(6-chloropyrid-3-yl)methyl](prop-2-yn-1-yl)amino}cyclohex-2-en-1-one] | – | – | – | – | – | – | – | – | – | – | – | – | 85 | 25 | 85 | 40 | 65 | 15 | 45 | 30 | Kill in % after 6 days +AMS + RME [1, 14]: 99%; Kill in % after 6 days +AMS [1, 15]: 98%; Kill in % after 6 days +RME [1, 16]: 80%; pest or weed control at 100 ppm [1, 17]: 55%
O=C1C=C(N(Cc2cnc(Cl)c(F)c2)C2CC2)CO1 [Compound I-13, 4-{[(6-chloro-5-fluoropyrid-3-yl)methyl](cyclopropyl)amino}furan-2(5H)-one] | 20 | 5 | 5 | 0 | 90 | 5 | 35 | – | – | – | 5 | – | – | – | – | – | – | – | – | – | Kill in % after 6 days +AMS + RME [1, 27]: 75%; Kill in % after 6 days +AMS [1, 28]: 65%; Kill in % after 6 days +RME [1, 29]: 75%; pest or weed control at 4 ppm [1, 17]: 80%
O=C1C=C(N(Cc2ccc(Cl)nc2)CC(F)F)CO1 [Compound I-7, 4-{[(6-chloropyrid-3-yl)methyl](2,2-difluoroethyl)amino}furan-2(5H)-one] | 80 | 60 | 70 | – | 90 | 45 | 80 | – | – | – | – | – | – | – | – | – | – | – | – | – | pest or weed control at 0.8 ppm ([1]; Aphis gossypii, 144 h, read-out: Kill in % after 6 days a.i.): 60%; pest or weed control at 0.8 ppm [2]: 55%
CCN(Cc1ccc(Cl)nc1)C1=CC(=O)OC1 [Compound I-30, 4-{[(6-chloropyrid-3-yl)methyl](ethyl)amino}furan-2(5H)-one] | – | – | – | – | 45 | 25 | 95 | – | – | – | 5 | – | – | – | – | – | 95 | 100 | 100 | 80 | –
C#CCN(Cc1ccc(Cl)nc1)C1=CC(=O)OC1 [Compound I-33, 4-{[(6-chloropyrid-3-yl)methyl](prop-2-yn-1-yl)amino}furan-2(5H)-one] | – | – | – | – | – | – | – | – | – | – | – | – | – | – | – | – | – | – | – | – | Kill in % after 6 days +AMS + RME [1, 27]: 15%; Kill in % after 6 days +AMS [1, 28]: 25%; Kill in % after 6 days +RME [1, 29]: 65%; pest or weed control at 4 ppm [1, 17]: 30%; Kill in % after 6 days +AMS + RME [2, 21]: 95%; Kill in % after 6 days +AMS [2, 22]: 45%; Kill in % after 6 days +RME [2, 23]: 95%; pest or weed control at 100 ppm ([2]; pepper plants sprayed, 6 days): 40%
